Results from PMC3062375 (Biochemistry, 2011).
Non-standard residues stand in square brackets, D forms with d. Residues, ends and D or L forms follow the SMILES beside them. No end group written: not given here. pS = N[C@@H](COP(=O)(O)O)C(=O)O

Target: T1, S100A11 protein (Sus scrofa, UniProt P31950)
T1 sequence (P31950 1-99): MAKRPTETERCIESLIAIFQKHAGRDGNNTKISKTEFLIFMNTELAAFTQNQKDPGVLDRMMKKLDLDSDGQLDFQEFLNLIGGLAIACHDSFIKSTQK
Assay: Tryptophan fluorescence titration of peptide binding to S100A11
Parameters: species or system porcine

Molecule | Kd
CC[C@H](C)[C@H](NC(=O)[C@H](Cc1ccccc1)NC(=O)[C@H](Cc1c[nH]c2ccccc12)NC(=O)[C@H](C)NC(=O)[C@H](CCC(N)=O)NC(=O)[C@H](CCCCN)NC(=O)[C@H](CC(C)C)NC(=O)[C@H](Cc1ccccc1)NC(=O)[C@H](CCC(=O)O)NC(=O)[C@H](COP(=O)(O)O)NC(=O)[C@@H](NC(=O)[C@H](CCSC)NC(=O)[C@H](C)NC(C)=O)C(C)C)C(=O)N[C@@H](CCC(=O)O)C(=O)N[C@@H](CC(N)=O)C(=O)N[C@@H](CCC(=O)O)C(=O)N[C@@H](CCC(=O)O)C(=O)N[C@@H](CCC(N)=O)C(=O)O [Ac1−18P, Ac-AMV[pSer]EFLKQAWFIENEEQ] (Ac-AMV[pS]EFLKQAWFIENEEQ-OH) | 56.8 ± 1 µM
Ac-AMVSEFLKQAWFIENEEQ [Ac1−18, Ac-AMVSEFLKQAWFIENEEQ] | 2.1 ± 0.2 µM
